Assay results from the CheMixHub drug solubility set.

Assay: xn = mol fraction of the nth substance listed, in the solute-free solvent

CCC(C)n1ncn(-c2ccc(N3CCN(c4ccc(OCC5COC(Cn6cncn6)(c6ccc(Cl)cc6Cl)O5)cc4)CC3)cc2)c1=O (stereo not drawn) + ClC(Cl)Cl + CCCO
solubility (g/100 g solution)
Conditions	x2 = 0.05356	x2 = 0.113	x2 = 0.1792	x2 = 0.2535	x2 = 0.3375	x2 = 0.4331	x2 = 0.5431	x2 = 0.6708	x2 = 0.8209
288.15 K	0.0558	0.128	0.28	0.831	3.16	6.95	12.2	17.6	24.2
293.15 K	0.0691	0.153	0.347	1.04	3.51	7.71	13.2	18.8	25.1
298.15 K	0.0837	0.183	0.426	1.28	3.9	8.57	14.2	19.9	26.1
303.15 K	0.102	0.216	0.523	1.57	4.29	9.48	15.3	21.1	26.9
308.15 K	0.122	0.255	0.63	1.89	4.73	10.4	16.3	22.3	27.8

CCC(C)n1ncn(-c2ccc(N3CCN(c4ccc(OCC5COC(Cn6cncn6)(c6ccc(Cl)cc6Cl)O5)cc4)CC3)cc2)c1=O (stereo not drawn) + ClCCl + CCO
solubility (g/100 g solution)
Conditions	x2 = 0.05744	x2 = 0.1206	x2 = 0.1903	x2 = 0.2677	x2 = 0.3542	x2 = 0.4513	x2 = 0.5613	x2 = 0.6869	x2 = 0.8315
288.15 K	0.0488	0.124	0.37	1.04	2.95	7.26	15.2	21.3	25.9
293.15 K	0.0616	0.163	0.436	1.35	3.51	8.44	16.3	22.6	27
298.15 K	0.0776	0.215	0.511	1.72	4.09	9.83	17.6	24	28.2
303.15 K	0.0979	0.279	0.598	2.16	4.81	11.3	18.8	25.4	29.3
308.15 K	0.122	0.362	0.694	2.7	5.58	13	20.1	26.7	30.5

CN1CCN(C2=Nc3cc(Cl)ccc3Nc3ccccc32)CC1 + C1CCOC1 + Cc1ccccc1
solubility (g/100 g solution)
Conditions	x2 = 0.1243	x2 = 0.242	x2 = 0.3539	x2 = 0.4601	x2 = 0.5602	x2 = 0.6569	x2 = 0.749	x2 = 0.8361	x2 = 0.9197
293.15 K	3.93	5.65	8.04	9.98	13	15.3	17.5	20.9	23.9
298.15 K	4.3	6.76	8.83	11.7	14.2	16.5	20.5	22.2	25.6
303.15 K	5.04	7.34	9.84	13.1	15.8	18.8	21.9	25	28.1
308.15 K	6.11	8.39	11.2	14.4	17.5	20.6	24	26	29.8
313.15 K	7.2	9.63	12.2	16.4	19.5	22.7	25.9	29	31.9
318.15 K	8.19	10.7	14.6	18.1	21.4	24.9	27.9	30.5	33.7
323.15 K	8.82	12.2	15.9	20.1	23.6	27	29.6	33.1	36.6
